Results reported in patent publication US8927501B2, “αvβ6 peptide ligands and their uses” (priority 2005, dated 2015).
Where a SMILES comes first, the peptide text is derived from it. Where no end group is shown, it is not given here. The star is where a group is joined. Biotin = O=C1N[C@H]2[C@H](CS[C@H]2CCCCC(=O)*)N1; Ahx = NCCCCCC(=O)O

What was measured:
αvβ6 [1] = molecular target: αvβ6 (UniProt P18564+P43406); assay: cell-based; parameters: species or system mouse
αvβ6 [2] = molecular target: T1, αvβ6 (Homo sapiens, UniProt P06756+P18564); assay: Cell adhesion assay: αvβ6-dependent adhesion of VB6 cells to LAP; format: cell-based
T1 construct: endogenous in cells; host or cells: VB6 human oral squamous cell carcinoma
T1 sequence (P06756 31-1048): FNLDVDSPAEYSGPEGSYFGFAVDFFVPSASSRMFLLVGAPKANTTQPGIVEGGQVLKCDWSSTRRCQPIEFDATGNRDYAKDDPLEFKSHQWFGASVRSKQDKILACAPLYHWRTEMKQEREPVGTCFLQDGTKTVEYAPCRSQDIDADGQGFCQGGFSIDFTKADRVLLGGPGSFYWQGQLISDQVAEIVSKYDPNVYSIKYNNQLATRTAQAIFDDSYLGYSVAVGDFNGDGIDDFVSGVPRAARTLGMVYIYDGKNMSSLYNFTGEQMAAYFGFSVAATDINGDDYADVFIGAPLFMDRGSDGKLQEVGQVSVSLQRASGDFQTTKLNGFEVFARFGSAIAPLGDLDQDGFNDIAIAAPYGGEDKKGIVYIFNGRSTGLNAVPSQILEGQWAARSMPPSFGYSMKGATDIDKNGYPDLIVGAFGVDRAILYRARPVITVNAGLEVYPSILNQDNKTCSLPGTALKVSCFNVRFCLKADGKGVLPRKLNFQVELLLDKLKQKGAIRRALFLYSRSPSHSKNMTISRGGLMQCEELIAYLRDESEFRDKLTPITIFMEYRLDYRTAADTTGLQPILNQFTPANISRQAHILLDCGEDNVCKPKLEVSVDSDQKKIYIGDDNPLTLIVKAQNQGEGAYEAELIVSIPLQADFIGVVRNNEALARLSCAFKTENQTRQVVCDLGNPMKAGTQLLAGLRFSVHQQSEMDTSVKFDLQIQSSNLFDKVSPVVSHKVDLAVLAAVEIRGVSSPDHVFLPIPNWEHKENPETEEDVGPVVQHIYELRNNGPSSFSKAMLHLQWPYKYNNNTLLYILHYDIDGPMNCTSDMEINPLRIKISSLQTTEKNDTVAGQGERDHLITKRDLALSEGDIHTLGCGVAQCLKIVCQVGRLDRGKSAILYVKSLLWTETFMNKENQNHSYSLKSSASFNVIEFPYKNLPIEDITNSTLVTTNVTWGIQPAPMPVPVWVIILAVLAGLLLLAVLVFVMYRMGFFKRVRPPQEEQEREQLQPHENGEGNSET
T1 sequence (P18564 22-788): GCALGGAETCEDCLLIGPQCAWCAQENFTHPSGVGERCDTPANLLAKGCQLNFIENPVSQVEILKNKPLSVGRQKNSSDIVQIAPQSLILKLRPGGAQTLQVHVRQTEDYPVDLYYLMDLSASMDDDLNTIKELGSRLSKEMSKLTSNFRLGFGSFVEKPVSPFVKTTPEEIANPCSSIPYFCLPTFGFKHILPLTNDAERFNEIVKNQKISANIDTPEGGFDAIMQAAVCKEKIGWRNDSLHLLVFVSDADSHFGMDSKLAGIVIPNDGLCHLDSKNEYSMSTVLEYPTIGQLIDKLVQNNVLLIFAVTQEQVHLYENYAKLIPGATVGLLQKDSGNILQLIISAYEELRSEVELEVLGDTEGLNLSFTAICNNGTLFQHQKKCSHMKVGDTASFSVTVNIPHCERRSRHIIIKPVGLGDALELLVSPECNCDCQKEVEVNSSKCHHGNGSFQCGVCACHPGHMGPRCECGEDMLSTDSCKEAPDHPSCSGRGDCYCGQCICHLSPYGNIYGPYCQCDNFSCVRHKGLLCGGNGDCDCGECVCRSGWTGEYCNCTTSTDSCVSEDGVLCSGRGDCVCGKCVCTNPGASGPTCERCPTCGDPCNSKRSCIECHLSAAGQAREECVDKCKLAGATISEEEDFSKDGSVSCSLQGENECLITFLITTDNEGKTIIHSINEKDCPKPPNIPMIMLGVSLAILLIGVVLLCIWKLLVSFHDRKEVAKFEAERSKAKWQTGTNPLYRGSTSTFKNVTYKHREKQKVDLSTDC

rsαvβ6 [3] = molecular target: T2, rsαvβ6 (Homo sapiens, UniProt P06756+P18564); assay: biochemical; format: binding
T2 sequence (P06756 31-992 limits assumed): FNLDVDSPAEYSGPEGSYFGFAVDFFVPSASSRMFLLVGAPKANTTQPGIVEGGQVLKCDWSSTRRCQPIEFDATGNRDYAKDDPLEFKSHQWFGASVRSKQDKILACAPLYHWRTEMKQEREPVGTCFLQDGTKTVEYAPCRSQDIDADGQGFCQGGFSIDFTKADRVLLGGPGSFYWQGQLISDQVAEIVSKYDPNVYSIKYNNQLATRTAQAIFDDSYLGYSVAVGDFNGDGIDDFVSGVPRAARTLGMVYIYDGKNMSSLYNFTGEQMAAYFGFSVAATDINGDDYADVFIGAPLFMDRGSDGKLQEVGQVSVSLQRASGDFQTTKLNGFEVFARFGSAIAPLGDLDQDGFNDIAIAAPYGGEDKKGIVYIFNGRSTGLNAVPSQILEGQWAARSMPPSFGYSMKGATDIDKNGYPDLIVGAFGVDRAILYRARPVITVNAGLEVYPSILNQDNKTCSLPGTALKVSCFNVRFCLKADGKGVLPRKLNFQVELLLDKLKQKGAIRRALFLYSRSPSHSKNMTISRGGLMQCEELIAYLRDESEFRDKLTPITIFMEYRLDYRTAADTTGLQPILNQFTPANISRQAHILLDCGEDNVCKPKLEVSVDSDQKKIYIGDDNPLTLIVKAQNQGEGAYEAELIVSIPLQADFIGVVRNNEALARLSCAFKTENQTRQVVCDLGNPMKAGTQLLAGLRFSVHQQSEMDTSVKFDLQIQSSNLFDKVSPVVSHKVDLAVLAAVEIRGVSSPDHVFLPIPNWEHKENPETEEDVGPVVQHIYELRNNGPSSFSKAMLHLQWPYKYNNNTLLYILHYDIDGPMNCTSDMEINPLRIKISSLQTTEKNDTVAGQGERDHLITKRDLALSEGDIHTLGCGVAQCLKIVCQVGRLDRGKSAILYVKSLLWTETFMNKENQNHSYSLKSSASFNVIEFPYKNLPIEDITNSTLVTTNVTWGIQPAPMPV
T2 sequence (P18564 22-709 limits assumed): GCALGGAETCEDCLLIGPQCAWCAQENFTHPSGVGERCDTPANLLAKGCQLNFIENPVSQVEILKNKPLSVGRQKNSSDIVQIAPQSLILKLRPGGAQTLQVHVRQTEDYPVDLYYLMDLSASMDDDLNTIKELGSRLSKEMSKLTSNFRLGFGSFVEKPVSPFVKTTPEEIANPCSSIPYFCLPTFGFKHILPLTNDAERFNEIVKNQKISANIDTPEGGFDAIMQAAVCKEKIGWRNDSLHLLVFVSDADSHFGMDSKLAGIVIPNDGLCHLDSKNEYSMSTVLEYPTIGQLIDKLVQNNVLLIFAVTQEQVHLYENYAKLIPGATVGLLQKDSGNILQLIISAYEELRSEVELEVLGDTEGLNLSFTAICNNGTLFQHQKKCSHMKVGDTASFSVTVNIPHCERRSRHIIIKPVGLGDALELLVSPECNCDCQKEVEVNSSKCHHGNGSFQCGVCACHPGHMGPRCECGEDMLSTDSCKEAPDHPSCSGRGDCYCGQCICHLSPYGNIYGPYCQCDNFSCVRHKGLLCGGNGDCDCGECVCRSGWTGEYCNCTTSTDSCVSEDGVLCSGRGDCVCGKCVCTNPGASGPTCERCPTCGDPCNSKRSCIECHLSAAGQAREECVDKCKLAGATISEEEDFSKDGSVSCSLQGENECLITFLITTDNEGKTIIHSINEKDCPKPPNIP

A375Pβ6puro = format: cell-based, human
A375Ppuro = format: cell-based, human
rsαvβ6 [4] = molecular target: T2, rsαvβ6; assay: biochemical; format: binding; remark: listed apart in the source

CC(C)C[C@H](NC(=O)[C@H](CC(=O)O)NC(=O)CNC(=O)[C@H](CCCNC(=N)N)NC(=O)[C@H](CC(C)C)NC(=O)[C@H](CC(N)=O)NC(=O)[C@@H]1CCCN1C(=O)[C@@H](N)C(C)C)C(=O)N[C@@H](CCC(N)=O)C(=O)N[C@H](C(=O)N[C@@H](CC(C)C)C(=O)N[C@@H](C)C(=O)O)C(C)C [DD19]
IC50 (αvβ6 [1]): 190000 nM
VB6 adhesion to LAP in the presence of peptide (αvβ6 [2]): the same as adhesion in the absence of peptide
IC50 (rsαvβ6 [3]): 85 nM

CC(C)C[C@H](NC(=O)[C@H](CC(=O)O)NC(=O)CNC(=O)[C@H](CCCNC(=N)N)NC(=O)[C@H](CC(C)C)NC(=O)[C@H](CC(N)=O)NC(=O)[C@@H]1CCCN1C(=O)[C@@H](NC(=O)[C@H](C)NC(=O)[C@@H](N)CC(N)=O)C(C)C)C(=O)N[C@@H](CCC(N)=O)C(=O)N[C@H](C(=O)N[C@@H](CC(C)C)C(=O)N[C@@H](C)C(=O)N[C@@H](CCC(N)=O)C(=O)N[C@@H](CCCCN)C(=O)N[C@H](C(=O)N[C@@H](C)C(=O)N[C@@H](CCCNC(=N)N)C(=O)N[C@H](C(=O)O)[C@@H](C)O)C(C)C)C(C)C [A20FMDV2]
binding to A375Pβ6puro (A375Pβ6puro): observed at 10 μM, 1μM, 0.1 μM, 0.01 μM and 0.00 μM
differential binding A375Pβ6puro versus A375Ppuro (A375Pβ6puro): four orders of magnitude
binding to A375Ppuro (A375Ppuro): only at 10 μM

CC[C@H](C)[C@H](NC(=O)[C@@H](NC(=O)[C@H](C)NC(=O)[C@H](CC(C)C)NC(=O)[C@H](CC(=O)O)NC(=O)CNC(=O)[C@H](CCCNC(=N)N)NC(=O)[C@H](CCCNC(=N)N)NC(=O)CNC(=O)[C@@H](N)[C@@H](C)O)[C@@H](C)O)C(=O)O [DD3] (H-TGRRGDLATI-OH; N-terminus and C-terminus assumed)
adhesion of 3T3β6.19 to LAP, % of control cell adhesion (αvβ6 [1]): 79±22%
effect on VB6 adhesion to LAP (αvβ6 [2]): little effect
IC50 (rsαvβ6 [3]): 22.6 nM

CC[C@H](C)[C@H](NC(=O)[C@@H](NC(=O)[C@H](C)NC(=O)[C@H](CC(C)C)NC(=O)[C@H](CC(=O)O)NC(=O)CNC(=O)[C@H](CCCNC(=N)N)NC(=O)[C@@H](N)CCCNC(=N)N)[C@@H](C)O)C(=O)N[C@@H](Cc1c[nH]cn1)C(=O)O [DD1]
IC50 (αvβ6 [1]): 216000 nM
adhesion of 3T3β6.19 to LAP, % of control cell adhesion (αvβ6 [1]): 57±4%

CC(C)C[C@@H]1NC(=O)[C@H](CC(=O)O)NC(=O)CNC(=O)[C@H](CCCNC(=N)N)NC(=O)[C@H](CC(C)C)NC(=O)[C@H](CC(N)=O)NC(=O)[C@@H]2CCCN2C(=O)[C@@H](NC(=O)[C@@H](CCCCN)NC(=O)[C@@H](Cc2ccc(O)cc2)NC(=O)[C@@H](CCC(=O)O)NC(=O)CCCCCNC(=O)CCCC[C@@H]2SC[C@@H]3NC(=O)N[C@@H]32)CSSC[C@@H](C(=O)N[C@@H](CCCNC(=N)N)C(=O)N[C@H](C(=O)N[C@@H](CCCCN)C(=O)O)[C@@H](C)O)NC(=O)[C@H](C(C)C)NC(=O)[C@H](CCCCN)NC(=O)[C@H](CCC(N)=O)NC(=O)[C@H](C)NC(=O)[C@H](CC(C)C)NC(=O)[C@H](C(C)C)NC(=O)[C@H](CCC(N)=O)NC1=O [B-DBD1]
EC50 (rsαvβ6 [4]): 0.69 nM
binding of biotinylated peptide to immobilised rsαvβ6 (rsαvβ6 [4]): concentration-dependent binding
binding to A375Pβ6 in the presence of 63G9 (A375Pβ6puro): greatly reduced
binding to A375Pβ6 in the presence of control IgG (A375Pβ6puro): bound strongly
binding to A375Pβ6puro (A375Pβ6puro): high levels of binding at concentrations as low as 1 nM
binding to A375Ppuro (A375Ppuro): only low levels of binding

CC(C)C[C@H](NC(=O)[C@H](Cc1cnc[nH]1)NC(=O)[C@H](CCCNC(=N)N)NC(=O)[C@H](C)NC(=O)[C@H](Cc1cnc[nH]1)NC(=O)[C@@H](NC(=O)[C@@H](NC(=O)[C@@H](NC(=O)[C@H](CC(C)C)NC(=O)[C@H](Cc1cnc[nH]1)NC(=O)[C@H](C)NC(=O)[C@H](CC(C)C)NC(=O)[C@H](CC(=O)O)NC(=O)CNC(=O)[C@H](CCCNC(=N)N)NC(=O)[C@H](C)NC(=O)[C@H](CO)NC(=O)[C@H](C)NC(=O)[C@@H](NC(=O)[C@@H](N)Cc1ccc(O)cc1)[C@@H](C)O)[C@@H](C)O)[C@@H](C)O)[C@@H](C)O)C(=O)O [A20FMDV1]
IC50 (αvβ6 [2]): 38200 ± 31100 nM
binding to A375Pβ6puro (A375Pβ6puro): binding to A375Pβ6puro at 1 μM
binding to A375Ppuro (A375Ppuro): did not bind to A375Ppuro

{Biotin-Ahx}-PGRTFHRFGMGAITRTGNDL [B-A20LAP-Ran, reference compound]
binding of biotinylated peptide to immobilised rsαvβ6 (rsαvβ6 [4]): did show binding at 10 μM and 1 μM

CC[C@H](C)[C@H](NC(=O)[C@@H](NC(=O)[C@H](C)NC(=O)[C@H](CC(C)C)NC(=O)[C@H](CC(=O)O)NC(=O)CNC(=O)[C@H](CCCNC(=N)N)NC(=O)[C@H](CCCNC(=N)N)NC(=O)CNC(=O)[C@@H](NC(=O)[C@@H](NC(=O)[C@@H](N)Cc1ccccc1)[C@@H](C)O)[C@@H](C)O)[C@@H](C)O)C(=O)O [DD2] (H-FTTGRRGDLATI-OH; N-terminus and C-terminus assumed)
effect on VB6 adhesion to LAP (αvβ6 [2]): little effect
IC50 (rsαvβ6 [3]): 30.9 nM

CC[C@H](C)[C@H](NC(=O)[C@@H](NC(=O)[C@H](C)NC(=O)[C@H](CC(C)C)NC(=O)[C@H](CC(=O)O)NC(=O)CNC(=O)[C@H](CCCNC(=N)N)NC(=O)[C@H](CCCNC(=N)N)NC(=O)CNC(=O)[C@@H](NC(=O)[C@@H](NC(=O)[C@H](Cc1ccccc1)NC(=O)CN)[C@@H](C)O)[C@@H](C)O)[C@@H](C)O)C(=O)N[C@@H](Cc1cnc[nH]1)C(=O)NCC(=O)N[C@@H](CCSC)C(=O)N[C@@H](CC(N)=O)C(=O)N[C@@H](CCCNC(=N)N)C(=O)N1CCC[C@H]1C(=O)N[C@@H](Cc1ccccc1)C(=O)O [A20LAP]
adhesion of 3T3β6.19 to LAP, % of control cell adhesion (αvβ6 [1]): 32±7%
IC50 (αvβ6 [2]): 28700 ± 11000 nM
effect on VB6 adhesion to LAP (αvβ6 [2]): completely blocks cell adhesion
binding of biotinylated peptide to immobilised rsαvβ6 (rsαvβ6 [4]): bound more than A20FMDV1
binding to A375Pβ6puro (A375Pβ6puro): bound to both cell lines at 10 μM and 1 μM
binding to A375Ppuro (A375Ppuro): bound to both cell lines at 10 μM and 1 μM

Biotin-εAhx-eykCKLVGALQPDNVLQRCRTK [B-Ran, reference compound]
binding of biotinylated peptide to immobilised rsαvβ6 (rsαvβ6 [4]): did not show any binding
binding to A375Pβ6 in the presence of 63G9 (A375Pβ6puro): did not bind
binding to A375Pβ6 in the presence of control IgG (A375Pβ6puro): did not bind
binding to A375Pβ6puro (A375Pβ6puro): did not bind
binding to A375Ppuro (A375Ppuro): did not bind

CC(C)C[C@H](NC(=O)[C@H](CC(=O)O)NC(=O)CNC(=O)[C@H](CCCNC(=N)N)NC(=O)[C@H](CC(C)C)NC(=O)[C@H](CC(N)=O)NC(=O)[C@@H]1CCCN1C(=O)[C@@H](NC(=O)[C@H](C)NC(=O)[C@@H](N)CC(N)=O)C(C)C)C(=O)N[C@@H](CCC(N)=O)C(=O)N[C@@H](C(=O)N[C@@H](CC(C)C)C(=O)N[C@@H](C)C(=O)N[C@@H](CCC(N)=O)C(=O)N[C@@H](CCCCN)C(=O)N[C@@H](C(=O)N[C@@H](C)C(=O)N[C@@H](CCCNC(=N)N)C(=O)N[C@H](C(=O)O)[C@@H](C)O)C(C)C)C(C)C [DV1217]
binding to A375Pβ6puro (A375Pβ6puro): bound to A375Pβ6 at 10 μM and at 1 μM
loss of anti-αvβ6 potency versus A20FMDV2 (A375Pβ6puro): 1000 fold
binding to A375Ppuro (A375Ppuro): did not bind noticeably

SAAARGDLEQLTSLLQNNVNV [P18-INK]
inhibition of αvβ6-dependent adhesion / binding affinity to αvβ6 (αvβ6 [1]): significantly greater than that of DD19

CC(C)C[C@@H]1NC(=O)[C@H](CC(=O)O)NC(=O)CNC(=O)[C@H](CCCNC(=N)N)NC(=O)[C@H](CC(C)C)NC(=O)[C@H](CC(N)=O)NC(=O)[C@@H]2CCCN2C(=O)[C@H](C(C)C)NC(=O)[C@H](Cc2ccc(O)cc2)NC(=O)[C@@H](NC(=O)CCCCCNC(=O)CCCC[C@@H]2SC[C@@H]3NC(=O)N[C@@H]32)CSSC[C@@H](C(=O)O)NC(=O)[C@H](CCCCN)NC(=O)[C@H](C)NC(=O)[C@H](C(C)C)NC(=O)[C@H](CCCCN)NC(=O)[C@H](CCC(N)=O)NC(=O)[C@H](C)NC(=O)[C@H](CC(C)C)NC(=O)[C@H](C(C)C)NC(=O)[C@H](CCC(N)=O)NC1=O [B-DBD2]
EC50 (rsαvβ6 [4]): 1.7 nM
binding of biotinylated peptide to immobilised rsαvβ6 (rsαvβ6 [4]): concentration-dependent binding
binding to A375Pβ6 in the presence of 63G9 (A375Pβ6puro): completely abolished
binding to A375Pβ6 in the presence of control IgG (A375Pβ6puro): bound strongly
binding to A375Pβ6puro (A375Pβ6puro): high levels of binding at concentrations as low as 1 nM
binding to A375Ppuro (A375Ppuro): only low levels of binding

CC(C)C[C@H](NC(=O)[C@H](CC(=O)O)NC(=O)CNC(=O)[C@H](CCCNC(=N)N)NC(=O)[C@H](CC(C)C)NC(=O)[C@H](CC(N)=O)NC(=O)[C@@H]1CCCN1C(=O)[C@@H](NC(=O)[C@H](C)NC(=O)[C@H](CC(N)=O)NC(=O)CCCCCNC(=O)CCCC[C@@H]1SC[C@@H]2NC(=O)N[C@@H]21)C(C)C)C(=O)N[C@@H](CCC(N)=O)C(=O)N[C@H](C(=O)N[C@@H](CC(C)C)C(=O)N[C@@H](C)C(=O)N[C@@H](CCC(N)=O)C(=O)N[C@@H](CCCCN)C(=O)N[C@H](C(=O)N[C@@H](C)C(=O)N[C@@H](CCCNC(=N)N)C(=O)N[C@H](C(=O)O)[C@@H](C)O)C(C)C)C(C)C [B-A20FMDV2]
binding to A375Pβ6 in the presence of 63G9 (A375Pβ6puro): completely abolished
binding to A375Pβ6 in the presence of control IgG (A375Pβ6puro): bound strongly
binding to A375Pβ6puro (A375Pβ6puro): high levels of binding at concentrations as low as 1 nM
binding to A375Ppuro (A375Ppuro): only low levels of binding

CC(C)C[C@H](NC(=O)[C@H](CC(=O)O)NC(=O)CNC(=O)[C@H](CCCNC(=N)N)NC(=O)[C@H](C)NC(=O)[C@H](C)NC(=O)[C@H](C)NC(=O)[C@@H](N)CO)C(=O)N[C@@H](CCC(=O)O)C(=O)N[C@@H](CCC(N)=O)C(=O)N[C@@H](CC(C)C)C(=O)N[C@H](C(=O)N[C@@H](CO)C(=O)N[C@@H](CC(C)C)C(=O)N[C@@H](CC(C)C)C(=O)N[C@@H](CCC(N)=O)C(=O)N[C@@H](CC(N)=O)C(=O)N[C@@H](CC(N)=O)C(=O)N[C@H](C(=O)N[C@@H](CC(N)=O)C(=O)O)C(C)C)[C@@H](C)O [P-INK] (H-SAAARGDLEQLTSLLQNNVN-OH; N-terminus assumed)
inhibition of αvβ6-dependent adhesion / binding affinity to αvβ6 (αvβ6 [1]): inhibited αvβ6-dependent adhesion
